O=c1c2ccccc2nc2n1CCc1c-2[nH]c2ccccc12
solubility (mole fraction)
Settings | 283.15 K | 288.15 K | 293.15 K | 298.15 K | 303.15 K | 308.15 K | 313.15 K | 318.15 K | 323.15 K
in acetone | 0.00069 | 0.00079 | 0.000929 | 0.00106 | 0.00122 | 0.00139 | 0.00158 | 0.0018 | 0.00205
in ethanol | 0.000132 | 0.00016 | 0.000191 | 0.000229 | 0.000271 | 0.00032 | 0.000375 | 0.00044 | 0.000509
in isopropanol | 7.46e-05 | 9.8e-05 | 0.000124 | 0.00016 | 0.000201 | 0.000257 | 0.000318 | 0.000396 | 0.000488
in methanol | 6.1e-05 | 7.33e-05 | 8.79e-05 | 0.000105 | 0.000125 | 0.000148 | 0.000172 | 0.000201 | 0.000234
in water | 1.45e-09 | 2.02e-09 | 2.84e-09 | 3.97e-09 | 5.49e-09 | 7.6e-09 | 1.04e-08 | 1.38e-08 | 1.85e-08

Source: BigSolDB 2.1
